In patent US4102886A, “Process for the preparation of benzo(a)quinolizidine derivatives” (priority 1974, dated 1978):

Columns and labels:
[1] = Inhibition of kaolin-induced oedema; assay type: in vivo; conditions: in vivo; LD50/ED50; read-out: Therapeutical index LD50/ED50, kaolin-oedema
Description: (§1) Inhibition of Kaolin- and carrageenin-induced oedema
(§2) The tests were carried out on groups each consisting of at least 10 animals. The percentage inhibition of oedema, in relation to the untreated controls, was determined for each of the animals, and the average values were calculated.

kaolin-induced oedema = assay: Inhibition of kaolin-induced oedema; assay type: in vivo; conditions: 2 hours
Description: as §1, §2

[2] = Inhibition of carrageenin-induced oedema; assay type: in vivo; conditions: in vivo; LD50/ED50; read-out: Therapeutical index LD50/ED50, carrageenin-oedema
Description: as §1, §2

[3] = system: carrageenin-induced oedema; assay: Inhibition of carrageenin-induced oedema; assay type: in vivo; conditions: 1.5 hours
Description: as §1, §2

Cotton granuloma = Cotton granuloma test; assay type: in vivo; conditions: 50 mg./kg.
[4] = system: serotonine-induced oedema; assay: Tests performed on serotonine-induced oedema; assay type: in vivo
Description: Tests performed on serotonine-induced oedema
The tests were carried out on groups each consisting of 10 animals. The percentage inhibition of oedema, in relation to the untreated controls, was determined for each of the animals. The data listed in Table 3 are the averages of the inhibition values.

[5] = system: experimentally provoked fever; assay: Antipyretic activity (experimentally provoked fever); assay type: in vivo; set-up: unit not given here
Text: Besides their antiphlogistic activities, some of the benzo(a)quinolizidine derivatives exert antipyretic effects as well. On the basis of the tests performed on experimentally provoked fever, the antipyretic activities of the compounds according to the invention surpass the effect of amidazophenum.

[6] = Analgesic effect by the hot-plate test; assay type: in vivo; conditions: 50 mg./kg. p.o.
[7] = Analgesic effect by the writhing test; assay type: in vivo; conditions: 50 mg./kg. p.o.
central nervious system = assay: Narcosis potentiating effect; assay type: in vivo
Acute toxicity tests = assay type: in vivo; conditions: rat, in vivo, po; rats, Litchfield-Wildoxon method
Description: The acute toxicity values of the compounds were determined on rats, after oral administration. The LD50 values were calculated according to the Litchfield-Wildoxon method.

[8] = Toxicity tests performed with compound SC-118; assay type: in vivo; conditions: rat, in vivo, CFY rats
Description: (§3) In order to give a more detailed information, in the following there are given the results of the toxicity tests performed with compound SC-118. The tests were carried out on CFY rats, each weighing 150 to 200 g.

CFY rats = assay: Toxicity tests performed with compound SC-118; assay type: in vivo
Description: as §3

[9] = Determination of ulcer index

N#CCCC1CN2CCc3cc4c(cc3C2CC1=O)OCO4 (stereo not drawn) [SC-118, 2-Oxo-3-(β-cyano-ethyl)-9,10-methylenedioxy-1,2,3,4,6,7-hexahydro-11bH-benzo(a)quinolisidine]
selectivity ratio [1]: 29.2
Inhibition of kaolin-induced oedema 2 hours after administration (kaolin-induced oedema; 25 mg./kg. p.o.): 18.1%
Inhibition of kaolin-induced oedema 2 hours after administration (kaolin-induced oedema; 50 mg./kg. p.o.): 27.5%
Inhibition of kaolin-induced oedema 2 hours after administration (kaolin-induced oedema; 75 mg./kg. p.o.): 43.7%
Inhibition of kaolin-induced oedema 2 hours after administration (kaolin-induced oedema; 100 mg./kg. p.o.): 53.4%
selectivity ratio [2]: 22.6
Inhibition of carrageenin-induced oedema 1.5 hours after administration ([3]; 25 mg./kg. p.o.): 22.0%
Inhibition of carrageenin-induced oedema 1.5 hours after administration ([3]; 50 mg./kg. p.o.): 30.6%
Inhibition of carrageenin-induced oedema 1.5 hours after administration ([3]; 75 mg./kg. p.o.): 47.7%
Inhibition of carrageenin-induced oedema 1.5 hours after administration ([3]; 100 mg./kg. p.o.): 52.7%
Effect, % (cotton granuloma test) (Cotton granuloma): 26.4%
Percentage inhibition 1 hour after administration (serotonine-induced oedema) ([4]; 25 mg./kg. p.o.): 28.5%
Percentage inhibition 1 hour after administration (serotonine-induced oedema) ([4]; 50 mg./kg. p.o.): 42.1%
Percentage inhibition 1 hour after administration (serotonine-induced oedema) ([4]; 75 mg./kg. p.o.): 48.7%
Variation of body temperature ([5]; 25 mg./kg. p.o., 1 hour after administration): -1.67
Variation of body temperature ([5]; 25 mg./kg. p.o., 2 hours after administration): -1.81
Variation of body temperature ([5]; 25 mg./kg. p.o., 3 hours after administration): -1.60
Variation of body temperature ([5]; 50 mg./kg. p.o., 1 hour after administration): -2.75
Variation of body temperature ([5]; 50 mg./kg. p.o., 2 hours after administration): -3.34
Variation of body temperature ([5]; 50 mg./kg. p.o., 3 hours after administration): -4.03
Prolongation of the reaction time, % (2 hours after administration) [6]: 61.2%
Activity, % (reduction of the number of writhings in relation to the controls) [7]: 41.8%
Prolongation of the sleep period in relation to the untreated controls, % (central nervious system; 25 mg./kg. p.o.): 96.4%
Prolongation of the sleep period in relation to the untreated controls, % (central nervious system; 50 mg./kg. p.o.): 253.0%
LD50 (Acute toxicity tests): 1410 mg/kg
LD50 ([8]; female, read-out: LD50, f): 1400 mg/kg
LD50 ([8]; male, read-out: LD50, m): 1420 mg/kg
Dead animals/treated animals (CFY rats; 750 mg./kg., 24 hours, female): 0/10
Dead animals/treated animals (CFY rats; 750 mg./kg., 24 hours, male): 0/10
Dead animals/treated animals (CFY rats; 750 mg./kg., 48 hours, female): 0/10
Dead animals/treated animals (CFY rats; 750 mg./kg., 48 hours, male): 0/10
Dead animals/treated animals (CFY rats; 750 mg./kg., 72 hours, female): 0/10
Dead animals/treated animals (CFY rats; 750 mg./kg., 72 hours, male): 0/10
Dead animals/treated animals (CFY rats; 1000 mg./kg., 24 hours, female): 2/10
Dead animals/treated animals (CFY rats; 1000 mg./kg., 24 hours, male): 1/10
Dead animals/treated animals (CFY rats; 1000 mg./kg., 48 hours, female): 2/10
Dead animals/treated animals (CFY rats; 1000 mg./kg., 48 hours, male): 2/10
Dead animals/treated animals (CFY rats; 1000 mg./kg., 72 hours, female): 2/10
Dead animals/treated animals (CFY rats; 1000 mg./kg., 72 hours, male): 2/10
Dead animals/treated animals (CFY rats; 1250 mg./kg., 24 hours, female): 3/10
Dead animals/treated animals (CFY rats; 1250 mg./kg., 24 hours, male): 2/10
Dead animals/treated animals (CFY rats; 1250 mg./kg., 48 hours, female): 3/10
Dead animals/treated animals (CFY rats; 1250 mg./kg., 48 hours, male): 3/10
Dead animals/treated animals (CFY rats; 1250 mg./kg., 72 hours, female): 3/10
Dead animals/treated animals (CFY rats; 1250 mg./kg., 72 hours, male): 3/10
Dead animals/treated animals (CFY rats; 1500 mg./kg., 24 hours, female): 6/10
Dead animals/treated animals (CFY rats; 1500 mg./kg., 24 hours, male): 5/10
Dead animals/treated animals (CFY rats; 1500 mg./kg., 48 hours, female): 6/10
Dead animals/treated animals (CFY rats; 1500 mg./kg., 48 hours, male): 5/10
Dead animals/treated animals (CFY rats; 1500 mg./kg., 72 hours, female): 6/10
Dead animals/treated animals (CFY rats; 1500 mg./kg., 72 hours, male): 5/10
Dead animals/treated animals (CFY rats; 1750 mg./kg., 24 hours, female): 6/10
Dead animals/treated animals (CFY rats; 1750 mg./kg., 24 hours, male): 6/10
Dead animals/treated animals (CFY rats; 1750 mg./kg., 48 hours, female): 8/10
Dead animals/treated animals (CFY rats; 1750 mg./kg., 48 hours, male): 8/10
Dead animals/treated animals (CFY rats; 1750 mg./kg., 72 hours, female): 8/10
Dead animals/treated animals (CFY rats; 1750 mg./kg., 72 hours, male): 8/10
Dead animals/treated animals (CFY rats; 2000 mg./kg., 24 hours, female): 10/10
Dead animals/treated animals (CFY rats; 2000 mg./kg., 24 hours, male): 10/10
Dead animals/treated animals (CFY rats; 2000 mg./kg., 48 hours, female): 10/10
Dead animals/treated animals (CFY rats; 2000 mg./kg., 48 hours, male): 10/10
Dead animals/treated animals (CFY rats; 2000 mg./kg., 72 hours, female): 10/10
Dead animals/treated animals (CFY rats; 2000 mg./kg., 72 hours, male): 10/10
Erosion ([9]; female): 0/10
Ulcer ([9]; female): 0/10
Erosion ([9]; male): 0/10
Ulcer ([9]; male): 0/10

COc1cc2c(cc1OC)C1CC(=O)C(CCC#N)CN1CC2 (stereo not drawn) [SCT-1, 2-Oxo-3-(β-cyano-ethyl)-9,10-dimethoxy-1,2,3,4,6,7-hexahydro-11bH-benzo(a)quinolizidine]
selectivity ratio [1]: 12.4
Inhibition of kaolin-induced oedema 2 hours after administration (kaolin-induced oedema; 25 mg./kg. p.o.): 20.5%
Inhibition of kaolin-induced oedema 2 hours after administration (kaolin-induced oedema; 50 mg./kg. p.o.): 21.4%
Inhibition of kaolin-induced oedema 2 hours after administration (kaolin-induced oedema; 75 mg./kg. p.o.): 24.8%
Inhibition of kaolin-induced oedema 2 hours after administration (kaolin-induced oedema; 100 mg./kg. p.o.): 47.8%
selectivity ratio [2]: 6.7
Inhibition of carrageenin-induced oedema 1.5 hours after administration ([3]; 50 mg./kg. p.o.): 24.2%
Inhibition of carrageenin-induced oedema 1.5 hours after administration ([3]; 75 mg./kg. p.o.): 25.7%
Inhibition of carrageenin-induced oedema 1.5 hours after administration ([3]; 100 mg./kg. p.o.): 37.7%
Percentage inhibition 1 hour after administration (serotonine-induced oedema) ([4]; 50 mg./kg. p.o.): 22.4%
Percentage inhibition 1 hour after administration (serotonine-induced oedema) ([4]; 100 mg./kg. p.o.): 57.8%
Prolongation of the sleep period in relation to the untreated controls, % (central nervious system; 25 mg./kg. p.o.): 132.8%
Prolongation of the sleep period in relation to the untreated controls, % (central nervious system; 50 mg./kg. p.o.): 207.6%
LD50 (Acute toxicity tests): 620 mg/kg
Erosion ([9]; female): 4/10
Ulcer ([9]; female): 2/10
Erosion ([9]; male): 3/10
Ulcer ([9]; male): 1/10

COC(=O)CCC1CN2CCc3cc(OC)c(OC)cc3C2CC1=O (stereo not drawn) [SCT-2, 2-Oxo-3-(β-methoxycarbonyl-ethyl)-9,10-dimethoxy-1,2,3,4,6,7-hexahydro-11bH-benzo(a)quinolizidine]
Inhibition of kaolin-induced oedema 2 hours after administration (kaolin-induced oedema; 25 mg./kg. p.o.): 5.8%
Inhibition of kaolin-induced oedema 2 hours after administration (kaolin-induced oedema; 50 mg./kg. p.o.): 21.4%
Inhibition of kaolin-induced oedema 2 hours after administration (kaolin-induced oedema; 75 mg./kg. p.o.): 24.7%
Inhibition of carrageenin-induced oedema 1.5 hours after administration ([3]; 50 mg./kg. p.o.): 14.3%
Inhibition of carrageenin-induced oedema 1.5 hours after administration ([3]; 75 mg./kg. p.o.): 2.8%
Inhibition of carrageenin-induced oedema 1.5 hours after administration ([3]; 100 mg./kg. p.o.): 17.0%
Percentage inhibition 1 hour after administration (serotonine-induced oedema) ([4]; 100 mg./kg. p.o.): 16.0%
Prolongation of the reaction time, % (2 hours after administration) [6]: 26.4%
Prolongation of the sleep period in relation to the untreated controls, % (central nervious system; 50 mg./kg. p.o.): 28.3%

CCOc1cc2c(cc1OCC)C1CC(=O)C(CCC#N)CN1CC2 (stereo not drawn) [SCT-3, 2-Oxo-3-(β-cyano-ethyl)-9,10-diethoxy-1,2,3,4,6,7-hexahydro-11bH-benzo(a)quinolizidine]
selectivity ratio [1]: 15
Inhibition of kaolin-induced oedema 2 hours after administration (kaolin-induced oedema; 25 mg./kg. p.o.): 17.3%
Inhibition of kaolin-induced oedema 2 hours after administration (kaolin-induced oedema; 50 mg./kg. p.o.): 19.4%
Inhibition of kaolin-induced oedema 2 hours after administration (kaolin-induced oedema; 75 mg./kg. p.o.): 48.9%
Inhibition of kaolin-induced oedema 2 hours after administration (kaolin-induced oedema; 100 mg./kg. p.o.): 45.9%
selectivity ratio [2]: 19.8
Inhibition of carrageenin-induced oedema 1.5 hours after administration ([3]; 25 mg./kg. p.o.): 25.1%
Inhibition of carrageenin-induced oedema 1.5 hours after administration ([3]; 50 mg./kg. p.o.): 41.5%
Inhibition of carrageenin-induced oedema 1.5 hours after administration ([3]; 100 mg./kg. p.o.): 53.7%
Percentage inhibition 1 hour after administration (serotonine-induced oedema) ([4]; 50 mg./kg. p.o.): 36.2%
Percentage inhibition 1 hour after administration (serotonine-induced oedema) ([4]; 100 mg./kg. p.o.): 47.0%
Prolongation of the reaction time, % (2 hours after administration) [6]: 33.9%
Prolongation of the sleep period in relation to the untreated controls, % (central nervious system; 25 mg./kg. p.o.): 131.7%
Prolongation of the sleep period in relation to the untreated controls, % (central nervious system; 50 mg./kg. p.o.): 240.2%
LD50 (Acute toxicity tests): 780 mg/kg
Erosion ([9]; female): 4/10
Ulcer ([9]; female): 0/10
Erosion ([9]; male): 6/10
Ulcer ([9]; male): 1/10
